# Laboratory results published in patent US9511058B2, “Methods for using carboxamide, sulfonamide and amine compounds” (Rigel Pharmaceuticals, Inc., priority 2010, dated 2016).
# Target: AMPK
# Test: AMPK activation, enzyme-linked immunosorbent assay
# Format: biochemical
# Details: compounds of Table 3 (Table 8)
row,SMILES,EC50
1,"CC(C)(C)OC(=O)N1CCC(NC(=O)c2nc3ccc(OC4CCN(c5ccc(C(F)(F)F)cc5)CC4)cc3o2)CC1 [3-1, tert-butyl 4-(6-(1-(4-(trifluoromethyl)phenyl)piperidin-4-yloxy)benzo[d]oxazole-2-carboxamido)piperidine-1-carboxylate]",< 100 nM
2,"O=C(NC1CCN(Cc2ccncc2)CC1)c1nc2ccc(OC3CCN(c4ccc(C(F)(F)F)cc4)CC3)cc2o1 [3-3, N-(1-(pyridin-4-ylmethyl)piperidin-4-yl)-6-(1-(4-(trifluoromethyl)phenyl)piperidin-4-yloxy)benzo[d]oxazole-2-carboxamide]",< 100 nM
3,"O=C(NC1CCN(C(=O)c2ccc(F)cc2)CC1)c1nc2ccc(OC3CCN(c4ccc(C(F)(F)F)cc4)CC3)cc2o1 [3-4, N-(1-(4-fluorobenzoyl)piperidin-4-yl)-6-(1-(4-(trifluoromethyl)phenyl)piperidin-4-yloxy)benzo[d]oxazole-2-carboxamide]",< 100 nM
4,"O=C(NC1CCNCC1)c1nc2ccc(OC3CCN(c4ccc(C(F)(F)F)cc4)CC3)cc2o1 [3-5, N-(piperidin-4-yl)-6-(1-(4-(trifluoromethyl)phenyl)piperidin-4-yloxy)benzo[d]oxazole-2-carboxamide]",10000 to 100000 nM
5,"O=C(c1nc2ccc(OC3CCN(c4ccc(C(F)(F)F)cc4)CC3)cc2o1)N1CC2CC1CN2Cc1ccncc1 (stereo not drawn) [3-8, (5-(pyridin-4-ylmethyl)-2,5-diazabicyclo[2.2.1]heptan-2-yl)(6-(1-(4-(trifluoromethyl)phenyl)piperidin-4-yloxy)benzo[d]oxazol-2-yl)methanone]",100 to 1000 nM
6,"NC(=O)c1ccc(CN2CC3CC2CN3C(=O)c2nc3ccc(OC4CCN(c5ccc(C(F)(F)F)cc5)CC4)cc3o2)cc1 (stereo not drawn) [3-9, 4-((5-(6-(1-(4-(trifluoromethyl)phenyl)piperidin-4-yloxy)benzo[d]oxazole-2-carbonyl)-2,5-diazabicyclo[2.2.1]heptan-2-yl)methyl)benzamide]",100 to 1000 nM
7,"N#Cc1ccc(CN2CC3CC2CN3C(=O)c2nc3ccc(OC4CCN(c5ccc(C(F)(F)F)cc5)CC4)cc3o2)cc1 (stereo not drawn) [3-10, 4-((5-(6-(1-(4-(trifluoromethyl)phenyl)piperidin-4-yloxy)benzo[d]oxazole-2-carbonyl)-2,5-diazabicyclo[2.2.1]heptan-2-yl)methyl)benzonitrile]",100 to 1000 nM
8,"O=C(c1ccc(F)cc1)N1CC2CC1CN2C(=O)c1nc2ccc(OC3CCN(c4ccc(C(F)(F)F)cc4)CC3)cc2o1 (stereo not drawn) [3-13, (5-(4-fluorobenzoyl)-2,5-diazabicyclo[2.2.1]heptan-2-yl)(6-(1-(4-(trifluoromethyl)phenyl)piperidin-4-yloxy)benzo[d]oxazol-2-yl)methanone]",< 100 nM
9,"O=C(NC1CCN(Cc2ccncc2)CC1)c1cn2ccc(OC3CCN(c4ccc(C(F)(F)F)cc4)CC3)cc2n1 [3-17, N-(1-(pyridin-4-ylmethyl)piperidin-4-yl)-7-(1-(4-(trifluoromethyl)phenyl)piperidin-4-yloxy)imidazo[1,2-a]pyridine-2-carboxamide]",< 100 nM
10,"CC(C)(C)OC(=O)N1CCC(NC(=O)c2cnc(OC3CCN(c4ccc(C(F)(F)F)cc4)CC3)cn2)CC1 [3-19, tert-butyl 4-(5-(1-(4-(trifluoromethyl)phenyl)piperidin-4-yloxy)pyrazine-2-carboxamido)piperidine-1-carboxylate]",1000 to 10000 nM
11,"N#Cc1ccc(CN2CCC(NC(=O)c3cnc(OC4CCN(c5ccc(C#N)cc5)CC4)s3)CC2)cc1 [3-24, N-(1-(4-cyanobenzyl)piperidin-4-yl)-2-(1-(4-cyanophenyl)piperidin-4-yloxy)thiazole-5-carboxamide]",< 100 nM
12,"N#Cc1ccc(CN2CCC(NC(=O)c3cnc(OC4CCN(Cc5ccc(C(F)(F)F)cc5)CC4)s3)CC2)cc1 [3-25, N-(1-(4-cyanobenzyl)piperidin-4-yl)-2-(1-(4-(trifluoromethyl)benzyl)piperidin-4-yloxy)thiazole-5-carboxamide]",< 100 nM
13,"CC(C)(C)OC(=O)N1CCC(Oc2ncc(C(=O)NC3CCN(Cc4ccc(C#N)cc4)CC3)s2)CC1 [3-26, tert-butyl 4-(5-(1-(4-cyanobenzyl)piperidin-4-ylcarbamoyl)thiazol-2-yloxy)piperidine-1-carboxylate]",1000 to 10000 nM
14,"N#Cc1ccc(CN2CCC(NC(=O)c3ccc(C(=O)N4CCN(Cc5ccc(Cl)cc5)CC4)cc3)CC2)cc1 [3-28, 4-(4-(4-chlorobenzyl)piperazine-1-carbonyl)-N-(1-(4-cyanobenzyl)piperidin-4-yl)benzamide]",< 100 nM
15,"N#Cc1ccc(CN2CCC(NC(=O)c3ccc(C(=O)N4CCN(c5ccc(Cl)cc5)CC4)cc3)CC2)cc1 [3-29, 4-(4-(4-chlorophenyl)piperazine-1-carbonyl)-N-(1-(4-cyanobenzyl)piperidin-4-yl)benzamide]",10000 to 100000 nM
16,"N#Cc1ccc(CN2CCC(NC(=O)c3ccc(C(=O)N4CCN(c5ccc(C(F)(F)F)cn5)CC4)cc3)CC2)cc1 [3-30, N-(1-(4-cyanobenzyl)piperidin-4-yl)-4-(4-(5-(trifluoromethyl)pyridin-2-yl)piperazine-1-carbonyl)benzamide]",< 100 nM
17,"N#Cc1ccc(CN2CCC(NC(=O)c3ccc4c(c3)CN(Cc3ccc(F)cc3)CC4)CC2)cc1 [3-34, N-(1-(4-cyanobenzyl)piperidin-4-yl)-2-(4-fluorobenzyl)-1,2,3,4-tetrahydroisoquinoline-7-carboxamide]",< 100 nM
18,"O=C(NC1CCN(Cc2cccnc2)CC1)c1ccc2c(c1)CN(Cc1ccc(F)cc1)CC2 [3-35, 2-(4-fluorobenzyl)-N-(1-(pyridin-3-ylmethyl)piperidin-4-yl)-1,2,3,4-tetrahydroisoquinoline-7-carboxamide]",1000 to 10000 nM
19,"N#Cc1ccc(CN2CCC(NC(=O)c3ccc4c(c3)CN(Cc3ccc(C#N)cc3)CC4)CC2)cc1 [3-37, 2-(4-cyanobenzyl)-N-(1-(4-cyanobenzyl)piperidin-4-yl)-1,2,3,4-tetrahydroisoquinoline-7-carboxamide]",< 100 nM
20,"N#Cc1ccc(CN2CCc3ccc(C(=O)NC4CCN(Cc5cccnc5)CC4)cc3C2)cc1 [3-38, 2-(4-cyanobenzyl)-N-(1-(pyridin-3-ylmethyl)piperidin-4-yl)-1,2,3,4-tetrahydroisoquinoline-7-carboxamide]",< 100 nM
21,"N#Cc1ccc(CN2CCc3ccc(C(=O)NC4CCN(Cc5ccc(C(F)(F)F)cc5)CC4)cc3C2)cc1 [3-39, 2-(4-cyanobenzyl)-N-(1-(4-(trifluoromethyl)benzyl)piperidin-4-yl)-1,2,3,4-tetrahydroisoquinoline-7-carboxamide]",1000 to 10000 nM

# The next lines start with the values.
row,EC50,SMILES
1,< 100 nM,"N#Cc1ccc(CN2CCC(NC(=O)c3nc4ccc(OC5CCN(c6ccc(C(F)(F)F)cc6)CC5)cc4o3)CC2)cc1 [3-2, N-(1-(4-cyanobenzyl)piperidin-4-yl)-6-(1-(4-(trifluoromethyl)phenyl)piperidin-4-yloxy)benzo[d]oxazole-2-carboxamide]"
2,< 100 nM,"N#Cc1ccc(C(=O)N2CCC(NC(=O)c3nc4ccc(OC5CCN(c6ccc(C(F)(F)F)cc6)CC5)cc4o3)CC2)cc1 [3-6, N-(1-(4-cyanobenzoyl)piperidin-4-yl)-6-(1-(4-(trifluoromethyl)phenyl)piperidin-4-yloxy)benzo[d]oxazole-2-carboxamide]"
3,100 to 1000 nM,"O=C(c1ccncc1)N1CC2CC1CN2C(=O)c1nc2ccc(OC3CCN(c4ccc(C(F)(F)F)cc4)CC3)cc2o1 (stereo not drawn) [3-11, (5-isonicotinoyl-2,5-diazabicyclo[2.2.1]heptan-2-yl)(6-(1-(4-(trifluoromethyl)phenyl)piperidin-4-yloxy)benzo[d]oxazol-2-yl)methanone]"
4,< 100 nM,"N#Cc1ccc(C(=O)N2CC3CC2CN3C(=O)c2nc3ccc(OC4CCN(c5ccc(C(F)(F)F)cc5)CC4)cc3o2)cc1 (stereo not drawn) [3-12, 4-(5-(6-(1-(4-(trifluoromethyl)phenyl)piperidin-4-yloxy)benzo[d]oxazole-2-carbonyl)-2,5-diazabicyclo[2.2.1]heptane-2-carbonyl)benzonitrile]"
5,< 100 nM,"N#Cc1ccc(CN2CCC(NC(=O)c3cn4ccc(OC5CCN(c6ccc(C(F)(F)F)cc6)CC5)cc4n3)CC2)cc1 [3-18, N-(1-(4-cyanobenzyl)piperidin-4-yl)-7-(1-(4-(trifluoromethyl)phenyl)piperidin-4-yloxy)imidazo[1,2-a]pyridine-2-carboxamide]"
6,< 100 nM,"O=C(NC1CCN(Cc2ccncc2)CC1)c1cnc(OC2CCN(c3ccc(C(F)(F)F)cc3)CC2)cn1 [3-21, N-(1-(pyridin-4-ylmethyl)piperidin-4-yl)-5-(1-(4-(trifluoromethyl)phenyl)piperidin-4-yloxy)pyrazine-2-carboxamide]"
7,< 100 nM,"N#Cc1ccc(CN2CCC(NC(=O)c3cnc(OC4CCN(c5ccc(C(F)(F)F)cc5)CC4)cn3)CC2)cc1 [3-22, N-(1-(4-cyanobenzyl)piperidin-4-yl)-5-(1-(4-(trifluoromethyl)phenyl)piperidin-4-yloxy)pyrazine-2-carboxamide]"
8,< 100 nM,"N#Cc1ccc(CN2CCC(NC(=O)c3cnc(OC4CCN(c5ccc(C(F)(F)F)cc5)CC4)s3)CC2)cc1 [3-23, N-(1-(4-cyanobenzyl)piperidin-4-yl)-2-(1-(4-(trifluoromethyl)phenyl)piperidin-4-yloxy)thiazole-5-carboxamide]"
9,< 100 nM,"N#Cc1ccc(CN2CCC(NC(=O)c3ccc(C(=O)NC4CCN(Cc5ccc(C(F)(F)F)cc5)CC4)cc3)CC2)cc1 [3-31, N^1-(1-(4-cyanobenzyl)piperidin-4-yl)-N^4-(1-(4-(trifluoromethyl)benzyl)piperidin-4-yl)terephthalamide]"
10,10000 to 100000 nM,"N#Cc1ccc(CN2CCC(NC(=O)c3ccc(C(=O)NC4CCN(c5ccccc5)CC4)cc3)CC2)cc1 [3-32, N^1-(1-(4-cyanobenzyl)piperidin-4-yl)-N^4-(1-phenylpiperidin-4-yl)terephthalamide]"
11,10000 to 100000 nM,"N#Cc1ccc(CN2CCC(NC(=O)c3ccc(C(=O)NC4CCN(Cc5ccccc5)CC4)cc3)CC2)cc1 [3-33, N^1-(1-benzylpiperidin-4-yl)-N^4-(1-(4-cyanobenzyl)piperidin-4-yl)terephthalamide]"
12,100 to 1000 nM,"O=C(NC1CCN(Cc2ccc(C(F)(F)F)cc2)CC1)c1ccc2c(c1)CN(Cc1ccc(F)cc1)CC2 [3-36, 2-(4-fluorobenzyl)-N-(1-(4-(trifluoromethyl)benzyl)piperidin-4-yl)-1,2,3,4-tetrahydroisoquinoline-7-carboxamide]"
